Measured values published in ChEMBL document CHEMBL3217666, “Synthesis, thiol-mediated reactive oxygen species generation profiles and anti-proliferative activities of 2,3-epoxy-1,4-naphthoquinones” (Medchemcomm, 2012).
pIC50: −log10 of the molar value.

System: not listed separately
Assay: Antiproliferative activity against human THP1 cells after 72 hrs by XTT assay
Format: functional, cell-based
Settings: THP-1, 72 h

Row | SMILES | pIC50
1 | Nc1cccc2c1C(=O)C1OC1C2=O (stereo not given) | < 4.30
2 | O=C1c2ccccc2C(=O)C2OC12 (stereo not given) | 5.20
3 | O=C1c2ccc([N+](=O)[O-])cc2C(=O)C2OC12 (stereo not given) | 5.64
4 | COc1cccc(C23OC2C(=O)c2ccccc2C3=O)c1 (stereo not given) | < 4.30
5 | O=C1c2cccc(OCc3ccccc3)c2C(=O)C2OC12 (stereo not given) | 4.55
6 | O=C1c2ccccc2C(=O)C2(c3ccccc3)OC12 (stereo not given) | < 4.30
7 | COc1cccc2c1C(=O)c1c(O)c3c(c(O)c1C2=O)C[C@@](O)(C(=O)CO)C[C@@H]3O[C@H]1C[C@H](N)[C@H](O)[C@H](C)O1 [DOXORUBICIN] | 6.96
8 | O=C1c2ccccc2C(=O)C2(c3cccc([N+](=O)[O-])c3)OC12 (stereo not given) | < 4.30
9 | CC(=O)c1ccc(C23OC2C(=O)c2ccccc2C3=O)cc1 (stereo not given) | < 4.30
10 | O=C1c2cccc([N+](=O)[O-])c2C(=O)C2OC12 (stereo not given) | 5.44
11 | O=C1c2cccc(O)c2C(=O)C2OC12 (stereo not given) | 4.95
12 | O=C1c2ccccc2C(=O)C2(c3ccc(F)cc3)OC12 (stereo not given) | 4.93
13 | CCOc1cccc2c1C(=O)C1OC1C2=O (stereo not given) | 5.02
14 | COc1ccccc1C12OC1C(=O)c1ccccc1C2=O (stereo not given) | 4.91
15 | O=C1c2cccc(OCc3ccc(C(F)(F)F)cc3)c2C(=O)C2OC12 (stereo not given) | < 4.30
16 | CC12OC1C(=O)c1c(O)cccc1C2=O (stereo not given) | 4.64
17 | Cc1ccc(C23OC2C(=O)c2ccccc2C3=O)cc1 (stereo not given) | 4.69
18 | COc1ccc(C23OC2C(=O)c2ccccc2C3=O)cc1 (stereo not given) | 4.94
19 | CC12OC1C(=O)c1ccccc1C2=O (stereo not given) | 4.87
20 | CC12OC1C(=O)c1c(OCc3ccccc3)cccc1C2=O (stereo not given) | < 4.30

System: not listed separately
Assay: Antiproliferative activity against human glioma cells
Format: functional, cell-based
Settings: Glioma cell

Row | SMILES | pIC50
21 | CC12OC1C(=O)c1ccccc1C2=O (stereo not given) | 4.80

System: HEK293
Assay: Antiproliferative activity against HEK293 cells after 72 hrs by XTT assay
Format: cell-based
Settings: Homo sapiens, HEK293, 72 h

Row | SMILES | pIC50
22 | O=C1c2ccccc2C(=O)C2OC12 (stereo not given) | 4.72
23 | O=C1c2ccc([N+](=O)[O-])cc2C(=O)C2OC12 (stereo not given) | 4.26
24 | COc1cccc2c1C(=O)c1c(O)c3c(c(O)c1C2=O)C[C@@](O)(C(=O)CO)C[C@@H]3O[C@H]1C[C@H](N)[C@H](O)[C@H](C)O1 [DOXORUBICIN] | 6.15
25 | O=C1c2cccc([N+](=O)[O-])c2C(=O)C2OC12 (stereo not given) | 4.91

System: not listed separately
Assay: Induction of hydrogen peroxide generation at 100 uM after 30 mins by xylenol orange staining-based spectrophotometry in presence of GSH and oxygen
Format: physicochemical
Settings: 0.5 h

Row | SMILES | Activity
26 | Nc1cccc2c1C(=O)C1OC1C2=O (stereo not given) | 1.68 µM
27 | O=C1c2ccc([N+](=O)[O-])cc2C(=O)C2OC12 (stereo not given) | 8.34 µM
28 | COc1cccc(C23OC2C(=O)c2ccccc2C3=O)c1 (stereo not given) | 1.46 µM
29 | O=C1c2cccc(OCc3ccccc3)c2C(=O)C2OC12 (stereo not given) | 1.6 µM
30 | O=C1c2ccccc2C(=O)C2(c3cccc([N+](=O)[O-])c3)OC12 (stereo not given) | 1.4 µM
31 | CC(=O)c1ccc(C23OC2C(=O)c2ccccc2C3=O)cc1 (stereo not given) | 1.36 µM
32 | O=C1c2cccc([N+](=O)[O-])c2C(=O)C2OC12 (stereo not given) | 5.2 µM
33 | O=C1c2ccccc2C(=O)C2(c3ccc(F)cc3)OC12 (stereo not given) | 1.36 µM
34 | COc1ccccc1C12OC1C(=O)c1ccccc1C2=O (stereo not given) | 1.28 µM
35 | Cc1ccc(C23OC2C(=O)c2ccccc2C3=O)cc1 (stereo not given) | 1.48 µM
36 | COc1ccc(C23OC2C(=O)c2ccccc2C3=O)cc1 (stereo not given) | 1.4 µM
37 | CC12OC1C(=O)c1c(OCc3ccccc3)cccc1C2=O (stereo not given) | 1.58 µM

Next, values leading:

Row | Activity | SMILES
38 | 4.4 µM | O=C1c2ccccc2C(=O)C2OC12 (stereo not given)
39 | 1.44 µM | O=C1c2ccccc2C(=O)C2(c3ccccc3)OC12 (stereo not given)
40 | 5.64 µM | O=C1c2cccc(O)c2C(=O)C2OC12 (stereo not given)
41 | 1.68 µM | CCOc1cccc2c1C(=O)C1OC1C2=O (stereo not given)
42 | 1.68 µM | O=C1c2cccc(OCc3ccc(C(F)(F)F)cc3)c2C(=O)C2OC12 (stereo not given)
43 | 1.6 µM | CC12OC1C(=O)c1c(O)cccc1C2=O (stereo not given)
44 | 1.52 µM | CC12OC1C(=O)c1ccccc1C2=O (stereo not given)

System: HEK293
Assay: Selectivity index, ratio of IC50 for HEK293 cells to IC50 for human THP1 cells
Format: functional
Settings: not given

Row | SMILES | Ratio IC50
45 | COc1cccc2c1C(=O)c1c(O)c3c(c(O)c1C2=O)C[C@@](O)(C(=O)CO)C[C@@H]3O[C@H]1C[C@H](N)[C@H](O)[C@H](C)O1 [DOXORUBICIN] | 6.4
